Measurements as given in patent EP1858489B1, “METHODS AND COMPOSITIONS FOR MODIFIED RELEASE OF NUTRITIONAL SUPPLEMENTS” (Mannatech, Inc., priority 2005, dated 2006).
Values joined by “and” are separate entries in the source; they are usually repeats but may differ in a detail not shown here. Identical values can stand only once. “Also recorded” adds a separate entry of the source.

Experiments:
[1] = ORAC(o) assay: oxygen radical absorbance capacity by dissolved oxygen; type: biochemical; design: unit not given here; settings: quercetin sample at 10µg/mL
Description: Method of Measuring Antioxidant Activity. In operation, the ORAC(o) assay of the present invention was used to evaluate antioxidant compositions, combinations and the like of solutions against a target molecule (linoleic acid) with oxygen present at equilibrium with the air. A free radical initiator is added and the time it takes for oxygen to disappear is measured, yielding the rate of disappearance. Trolox® is used as the standard, and a blank is run as a control. Amount of dissolved oxygen vs. time is plotted allowing direct comparison of net areas under the curve. A detailed method is as follows: Buffers (K2HPO4 (F.W. 174.2), NaH2PO4 (FW 120.0)) were obtained from Sigma (St. Louis, MO). […] HPLC grade acetone was obtained from Fisher (Hampton, NH). A YSI […] biological oxygen meter was obtained from YSI (Yellow Springs, Ohio) and used according to the manufacturer's specifications. ORAC(o) Method. The following stock solutions were used. […] Weigh 65.33g into 500mL of volumetric flask, and add dH20 to the mark. Concentration is 750 mM. Store 750 mM K2HPO4 stock solution in a refrigerator (2 to 8°C) equipped with a calibrated thermometer. Target temperature is 4°C. 750mM NaH2PO4 (FW 120.0); Weigh 45.00 g into 500 mL of volumetric flask, and add dH20 to the mark. […] Keep covered at room temperature until ready to use. […]

[2] = ORAC(fl) assay (fluorescein, method of Ou et al.); type: biochemical; settings: mixed at different ratios with quercetin; standard acetone:water solution
Description: Prior Art Method of Measuring Antioxidant Activity for Comparison. For the ORAC(fl) assay, the method of Ou et al. (Ou , B., Hampsch-Woodill, M. and Prior, R.L., J. Agric. Food Chem. 2001, 49, 4619-4626) was followed. Differences from the Ou procedure as published included the speed of the orbital shaker (Ou, 400 rpm; herein, 280 rpm), and the centrifuge speed (Ou, 14,000 rpm, 15 min; herein, 3200 rpm, 15 min and the length of the assay (Ou, 30 min; herein, 100 min). Fluorescein, sodium salt, was obtained from Aldrich (Milwaukee, WI). For the Ou method, a standard amount of fluorescein is added to an antioxidant product being tested, and the beginning level of fluorescence is measured. A free radical initiator is added, and the time and degree of disappearance of fluorescence are measured. Trolox®, 6-Hydroxy-2,5,7,8-tetramethylchroman-2-carboxylic Acid, is a cell-permeable, water-soluble derivative of vitamin E with potent antioxidant properties. Trolox® prevents peroxynitrite-mediated oxidative stress and apoptosis in rat thymocytes and is a synthetic antioxidant that is consistent from lot-to-lot and is used as the standard and run for comparison with each sample. A blank (control) used in calculations of the ORAC(o) value for each samples may be included in each run. Fluorescence vs. time is plotted. The blank (control) is subtracted from every curve. […]

[3] = 37 °C at neutral pH; cited from earlier work

For `O=c1c(O)c(-c2ccc(O)c(O)c2)oc2cc(O)cc(O)c12` [quercetin], which “Area Under Curve (AUC)” value ([1]; each day an average of 3 runs, 5 day precision trial) is on record?
The value was 202.7 and 212.9 and 187 and 202.9 and 213.1.

And the Area under curve ([1]; single runs of single day precision trial)?
Its Area under curve is 207.4 and 198.2 and 205 and 201.6 and 202.1.

With `Cc1c(C)c2c(c(C)c1O)CC[C@@](C)(CCC[C@H](C)CCC[C@H](C)CCCC(C)C)O2` [α-tocopherol] as the compound, how does the “contribution of α-tocopherol to AO activity” value [2] read?
The value was “no contribution to AO activity; also recorded: no statistically significant activity”.

For `CC(C)(N=NC(C)(C)C(=N)N)C(=N)N.Cl.Cl` [AAPH, 2,2' azobis (2-amidinopropane) dihydrochloride], which half life [3] is on record?
The half life was “about 175 hours”.
